Data from patent US20250215029A1 (Recludix Pharma, Inc., priority 2022, published 2025).

What follows are compounds tested against T1, pY641-STAT6 in PBMC (Homo sapiens, UniProt P42226) (assay: MSD-pSTAT-PBMC Assay (pSTAT6, IL-4 stimulated)). Conditions: STAT6, PBMC, compound 3 hrs, then 1 ng/mL IL-4 for 10 min; Table 115.
T1 construct: Cryopreserved Peripheral Blood Mononuclear Cells (PBMC) are from AllCells; host or cells: cryopreserved PBMC
T1 sequence (P42226 1-847): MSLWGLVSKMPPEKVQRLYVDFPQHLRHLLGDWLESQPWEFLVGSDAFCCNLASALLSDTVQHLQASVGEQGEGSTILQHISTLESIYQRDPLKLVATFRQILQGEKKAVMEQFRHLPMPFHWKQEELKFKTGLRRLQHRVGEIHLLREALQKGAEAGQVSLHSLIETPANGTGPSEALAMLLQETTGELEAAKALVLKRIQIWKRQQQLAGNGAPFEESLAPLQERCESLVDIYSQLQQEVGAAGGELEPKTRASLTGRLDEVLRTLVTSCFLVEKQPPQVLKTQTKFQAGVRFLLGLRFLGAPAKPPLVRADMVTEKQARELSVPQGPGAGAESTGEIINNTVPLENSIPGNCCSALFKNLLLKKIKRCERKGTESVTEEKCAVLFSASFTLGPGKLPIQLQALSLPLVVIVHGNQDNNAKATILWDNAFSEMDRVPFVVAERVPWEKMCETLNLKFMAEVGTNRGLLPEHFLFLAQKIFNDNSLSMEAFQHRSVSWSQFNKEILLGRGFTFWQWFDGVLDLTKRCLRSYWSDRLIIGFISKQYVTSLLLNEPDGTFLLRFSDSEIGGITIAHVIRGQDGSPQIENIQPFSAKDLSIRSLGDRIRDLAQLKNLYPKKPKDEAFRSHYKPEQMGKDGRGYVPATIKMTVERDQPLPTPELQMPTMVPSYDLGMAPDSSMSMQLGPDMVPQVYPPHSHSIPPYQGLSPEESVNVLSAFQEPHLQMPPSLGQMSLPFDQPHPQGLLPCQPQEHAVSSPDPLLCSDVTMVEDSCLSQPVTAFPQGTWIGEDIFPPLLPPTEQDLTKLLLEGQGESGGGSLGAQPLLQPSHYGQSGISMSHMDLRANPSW
Assay type: cell-based
Outline: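 Inhibition of cytokine-induced STAT phosphorylation was measured in recovered human PBMC after 3 hrs compound exposure and a 10 min IL-4 (1 ng/mL) or IL-6 (10 ng/mL) challenge. MSD detection of pY641-STAT6 or pY705-STAT3 yielded IC50 values.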
Compound `COCCOC(=O)[C@H](COC)NP(=O)(Oc1ccccc1)[C@@H](F)c1ccc2sc(C(=O)N[C@H]3CCCC[C@H]4CC[C@@H](C(=O)N5C[C@H](c6ccccc6)[C@@H](C#N)C56CC6)N4C3=O)cc2c1` (stereo partly drawn) [Compound 376, 2-methoxyethyl N-(((R)-(2-(((3S,6S,10aS)-3-((6S,7R)-7-cyano-6-phenyl-4-azaspiro[2.4]heptane-4-carbonyl)-5-oxodecahydropyrrolo [1,2-a]azocin-6-yl)carbamoyl)benzo [b]thiophen-5-yl)fluoromethyl) (phenoxy)phosphoryl)-O-methyl-L-serinate] has an IC50 of under 100 nM.
With `COCCOC(=O)[C@H](C)NP(=O)(Oc1ccccc1)[C@@H](F)c1ccc2sc(C(=O)N[C@H]3CCCC[C@H]4CC[C@@H](C(=O)N5C[C@@H](c6cccnc6)CC56CC6)N4C3=O)cc2c1` (stereo partly drawn) [Compound 378, 2-methoxyethyl (((R)-fluoro(2-(((3S,6S,10aS)-5-oxo-3-((R)-6-(pyridin-3-yl)-4-azaspiro[2.4]heptane-4-carbonyl)decahydropyrrolo[1,2-a]azocin-6-yl)carbamoyl)benzo [b]thiophen-5-yl)methyl)(phenoxy)phosphoryl)-L-alaninate] the IC50 was under 100 nM.
`CCCOC(=O)[C@H](C)NP(=O)(Oc1ccccc1)[C@@H](F)c1ccc2sc(C(=O)N[C@H]3CCC[C@H]4CC[C@@H](C(=O)N5C[C@@H](c6cccnc6)CC56CC6)N4C3=O)cc2c1` (stereo partly drawn) [Compound 379, propyl (((R)-fluoro(2-(((3S,6S,9aS)-5-oxo-3-((R)-6-(pyridin-3-yl)-4-azaspiro[2.4]heptane-4-carbonyl)octahydro-1H-pyrrolo[1,2-a]azepin-6-yl)carbamoyl)benzo [b]thiophen-5-yl)methyl)(phenoxy)phosphoryl)-L-alaninate] showed an IC50 of under 100 nM.
With `CCCOC(=O)[C@H](COC)NP(=O)(Oc1ccccc1)[C@@H](F)c1ccc2sc(C(=O)N[C@H]3CCCC[C@H]4CC[C@@H](C(=O)N5C[C@@H](c6cccnc6)CC56CC6)N4C3=O)cc2c1` (stereo partly drawn) [Compound 384, propyl N-(((R)-fluoro(2-(((3S,6S,10aS)-5-oxo-3-((R)-6-(pyridin-3-yl)-4-azaspiro[2.4]heptane-4-carbonyl)decahydropyrrolo[1,2-a]azocin-6-yl)carbamoyl)benzo [b]thiophen-5-yl)methyl)(phenoxy)phosphoryl)-O-methyl-L-serinate] the IC50 was under 100 nM.
Compound `C[C@H](NP(=O)(Oc1ccccc1)[C@@H](F)c1ccc2sc(C(=O)N[C@H]3CCCC[C@H]4CC[C@@H](C(=O)N5C[C@@H](c6cccnc6)CC56CC6)N4C3=O)cc2c1)C(=O)OCc1ccccn1` (stereo partly drawn) [Compound 385, pyridin-2-ylmethyl (((R)-fluoro(2-(((3S,6S,10aS)-5-oxo-3-((R)-6-(pyridin-3-yl)-4-azaspiro[2.4]heptane-4-carbonyl)decahydropyrrolo[1,2-a]azocin-6-yl)carbamoyl)benzo [b]thiophen-5-yl)methyl)(phenoxy)phosphoryl)-L-alaninate] has an IC50 of under 100 nM.
With `C[C@H](NP(=O)(Oc1ccccc1)[C@@H](F)c1ccc2sc(C(=O)N[C@H]3CCCC[C@H]4CC[C@@H](C(=O)N5C[C@@H](c6cccnc6)CC56CC6)N4C3=O)cc2c1)C(=O)OCC1(C)COC1` (stereo partly drawn) [Compound 386, (3-methyloxetan-3-yl)methyl (((R)-fluoro(2-(((3S,6S,10aS)-5-oxo-3-((R)-6-(pyridin-3-yl)-4-azaspiro[2.4]heptane-4-carbonyl)decahydropyrrolo[1,2-a]azocin-6-yl)carbamoyl)benzo [b]thiophen-5-yl)methyl)(phenoxy)phosphoryl)-L-alaninate] the IC50 was under 100 nM.
`CCCOC(=O)[C@H](C)NP(=O)(Oc1ccccc1)[C@H](F)c1ccc2sc(C(=O)N[C@H]3CCC[C@H]4CC[C@@H](C(=O)N5C[C@@H](c6ccccc6)[C@H](C#N)C56CC6)N4C3=O)cc2c1` (stereo partly drawn) [Compound 387, propyl (((S)-(2-(((3S,6S,9aS)-3-((6R,7S)-7-cyano-6-phenyl-4-azaspiro[2.4]heptane-4-carbonyl)-5-oxooctahydro-1H-pyrrolo[1,2-a]azepin-6-yl)carbamoyl)benzo [b]thiophen-5-yl)fluoromethyl) (phenoxy)phosphoryl)-L-alaninate] was tested, and the IC50 was under 100 nM.
`CCCOC(=O)[C@H](C)NP(=O)(Oc1ccccc1)C(F)c1ccc2ccc(C(=O)N[C@H]3CCCC[C@H]4CC[C@@H](C(=O)N5CC(c6ccccc6)CC56CC6)N4C3=O)cc2c1` (stereo partly drawn) [Compound 411, propyl ((fluoro(7-(((3S,6S,10aS)-5-oxo-3-(6-phenyl-4-azaspiro[2.4]heptane-4-carbonyl)decahydropyrrolo[1,2-a]azocin-6-yl)carbamoyl)naphthalen-2-yl)methyl)(phenoxy)phosphoryl)-L-alaninate] was tested, and the IC50 was under 100 nM.
For `CCCOC(=O)[C@H](C)NP(=O)(Oc1ccccc1)C(F)(F)c1ccc2ccc(C(=O)N[C@H]3CCCC[C@H]4CC[C@@H](C(=O)N5C[C@@H](c6cc[nH]c(=O)c6)CC56CC6)N4C3=O)cc2c1` (stereo partly drawn) [Compound 414, propyl ((difluoro(7-(((3S,6S,10aS)-5-oxo-3-((R)-6-(2-oxo-1,2-dihydropyridin-4-yl)-4-azaspiro[2.4]heptane-4-carbonyl)decahydropyrrolo[1,2-a]azocin-6-yl)carbamoyl)naphthalen-2-yl)methyl)(phenoxy)phosphoryl)-L-alaninate], the IC50 was 100 to 1000 nM.
`CCCCOC(=O)[C@H](C)NP(=O)(Cc1ccc2ccc(C(=O)N[C@H]3CCCC[C@H]4CC[C@@H](C(=O)N5CC(c6ccccc6)CC56CC6)N4C3=O)cc2c1)Oc1cccc2ccccc12` (stereo partly drawn) [Compound 416, butyl ((naphthalen-1-yloxy)((7-(((3S,6S,10aS)-5-oxo-3-(6-phenyl-4-azaspiro[2.4]heptane-4-carbonyl)decahydropyrrolo[1,2-a]azocin-6-yl)carbamoyl)naphthalen-2-yl)methyl)phosphoryl)-L-alaninate] gave an IC50 of over 3000 nM.
`CC(C)COC(=O)[C@H](C)NP(=O)(Oc1ccccc1)[C@@H](F)c1ccc2sc(C(=O)N[C@H]3CCCC[C@H]4CC[C@@H](C(=O)N5C[C@@H](c6cccnc6)CC56CC6)N4C3=O)cc2c1` (stereo partly drawn) [Compound 417, isobutyl (((R)-fluoro(2-(((3S,6S,10aS)-5-oxo-3-((R)-6-(pyridin-3-yl)-4-azaspiro[2.4]heptane-4-carbonyl)decahydropyrrolo[1,2-a]azocin-6-yl)carbamoyl)benzo [b]thiophen-5-yl)methyl)(phenoxy)phosphoryl)-L-alaninate] showed an IC50 of under 100 nM.
With `C[C@H](NP(=O)(Oc1ccccc1)[C@@H](F)c1ccc2sc(C(=O)N[C@H]3CCCC[C@H]4CC[C@@H](C(=O)N5C[C@@H](c6cccnc6)CC56CC6)N4C3=O)cc2c1)C(=O)OC1CC1` (stereo partly drawn) [Compound 418, cyclopropyl (((R)-fluoro(2-(((3S,6S,10aS)-5-oxo-3-((R)-6-(pyridin-3-yl)-4-azaspiro[2.4]heptane-4-carbonyl)decahydropyrrolo[1,2-a]azocin-6-yl)carbamoyl)benzo [b]thiophen-5-yl)methyl)(phenoxy)phosphoryl)-L-alaninate] the IC50 was under 100 nM.
`CC(C)OC(=O)[C@H](C)NP(=O)(Cc1ccc2ccc(C(=O)N[C@H]3CCCC[C@H]4CC[C@@H](C(=O)N5C[C@H](c6cc[nH]c(=O)c6)CC56CC6)N4C3=O)cc2c1)Oc1ccccc1` (stereo partly drawn) [Compound 423, isopropyl (((7-(((3S,6S,10aS)-5-oxo-3-((S)-6-(2-oxo-1,2-dihydropyridin-4-yl)-4-azaspiro[2.4]heptane-4-carbonyl)decahydropyrrolo[1,2-a]azocin-6-yl)carbamoyl)naphthalen-2-yl)methyl)(phenoxy)phosphoryl)-L-alaninate] showed an IC50 of 100 to 1000 nM.
For `CC(C)OC(=O)[C@H](C)NP(=O)(Cc1ccc2ccc(C(=O)N[C@H]3CCCC[C@H]4CC[C@@H](C(=O)N5C[C@@H](c6cc[nH]c(=O)c6)CC56CC6)N4C3=O)cc2c1)Oc1ccccc1` (stereo partly drawn) [Compound 424, isopropyl (((7-(((3S,6S,10aS)-5-oxo-3-((R)-6-(2-oxo-1,2-dihydropyridin-4-yl)-4-azaspiro[2.4]heptane-4-carbonyl)decahydropyrrolo[1,2-a]azocin-6-yl)carbamoyl)naphthalen-2-yl)methyl)(phenoxy)phosphoryl)-L-alaninate], the IC50 was 100 to 1000 nM.
For `CCCOC(=O)[C@H](C)NP(=O)(Oc1ccccc1)C(F)c1ccc2ccc(C(=O)N[C@H]3CCCC[C@H]4CC[C@@H](C(=O)N5CCC(c6cccnc6)C5)N4C3=O)cc2c1` (stereo partly drawn) [Compound 427, propyl ((fluoro(7-(((3S,6S,10aS)-5-oxo-3-(3-(pyridin-3-yl)pyrrolidine-1-carbonyl)decahydropyrrolo[1,2-a]azocin-6-yl)carbamoyl)naphthalen-2-yl)methyl)(phenoxy)phosphoryl)-L-alaninate], the IC50 was under 100 nM.
